Assay [1] can be described thus: Ratio of Thrombin Kass/Urokinase Kass.
Assay [2] can be described thus: Ratio of Thrombin Kass/plasmin Kass.
The nature of assay [3]: Ratio of Thrombin Kass/tissue plasminogen activator Kass.
Assay [4] is described as follows: Ratio of Thrombin Kass/trypsin Kass.

Molecules are shown by their SMILES. Where a SMILES comes first, the peptide text is derived from it.

For the molecule `N=C(N)c1ccc(CNC(=O)[C@@H]2CCCN2C(=O)[C@H](N)Cc2ccccc2)cc1`, the Selectivity in assay [1] worked out at 400000; in assay [2], 26000; in assay [3] it was 170000; in assay [4] it was 130.
The like results for `NC(N)=NCCC[C@@H](C=O)NC(=O)[C@@H]1CCCN1C(=O)[C@H](N)Cc1ccccc1` were, in that order, 13000, 390, 1800 and 5.1.
The like results for `NC(N)=NCCCCNC(=O)[C@@H]1CCCN1C(=O)[C@H](N)Cc1ccccc1` (HELM PEPTIDE1{[dF].P.[N=C(N)NCCCCN[*:1]]}$$$$V2.0) were, in that order, 31000, 4600, 920 and 33.

Values taken from ChEMBL document CHEMBL1129192, “D-Phe-Pro-p-Amidinobenzylamine: A potent and highly selective thrombin inhibitor” (Bioorg Med Chem Lett, 1996).
